Reference: the supplement of paper PMC8612539
In brackets after ≈: the same amount, converted by molar mass.

System: Escherichia coli
Assay: minimum inhibitory concentration (MIC)
Protocol: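 Broth microdilution MIC (Sensititre BOPO7F bovine plate, CLSI methods) of 19 antimicrobials against field isolates of P. multocida, M. haemolytica, H. somni (deep nasopharyngeal swabs) and E. coli, Enterococcus spp. (rectal swabs) from weaned dairy heifers. Incubation 16-24 h at 35 C. MIC is the lowest concentration preventing visible growth. Values with <= or > lie at the tested range limits. Trimethoprim-sulfamethoxazole is given as the trimethoprim component of a 1:19 mixture.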

CNC(C)C1CCC(N)C(OC2C(N)CC(N)C(OC3OCC(C)(O)C(NC)C3O)C2O)O1 (stereo not given) [Gentamicin]
Conditions | minimum inhibitory concentration [µg/mL]
isolate (source animal id): 8 | ≤ 1
isolate (source animal id): 9 | ≤ 1
isolate (source animal id): 10 | ≤ 1
isolate (source animal id): 11 | ≤ 1
isolate (source animal id): 12 | ≤ 1
isolate (source animal id): 13 | ≤ 1
isolate (source animal id): 14 | ≤ 1
isolate (source animal id): 15 | ≤ 1
isolate (source animal id): 16 | ≤ 1
isolate (source animal id): 98 | ≤ 1
isolate (source animal id): 99 | ≤ 1
isolate (source animal id): 100 | ≤ 1
isolate (source animal id): 101 | ≤ 1
isolate (source animal id): 102 | ≤ 1
isolate (source animal id): 103 | ≤ 1
isolate (source animal id): 104 | ≤ 1
isolate (source animal id): 105 | ≤ 1
isolate (source animal id): 106 | ≤ 1
isolate (source animal id): 107 | ≤ 1
isolate (source animal id): 108 | ≤ 1
isolate (source animal id): 109 | ≤ 1
isolate (source animal id): 110 | ≤ 1
isolate (source animal id): 111 | ≤ 1
isolate (source animal id): 112 | ≤ 1
isolate (source animal id): 113 | ≤ 1
isolate (source animal id): 114 | ≤ 1
isolate (source animal id): 115 | ≤ 1
isolate (source animal id): 116 | ≤ 1
isolate (source animal id): 117 | ≤ 1
isolate (source animal id): 118 | ≤ 1
isolate (source animal id): 119 | ≤ 1
isolate (source animal id): 120 | ≤ 1
isolate (source animal id): 121 | ≤ 1
isolate (source animal id): 122 | 8 (≈ 16.8 µM)
isolate (source animal id): 123 | ≤ 1
isolate (source animal id): 124 | 2 (≈ 4.19 µM)
isolate (source animal id): 125 | ≤ 1
isolate (source animal id): 126 | ≤ 1
isolate (source animal id): 127 | ≤ 1
isolate (source animal id): 128 | ≤ 1
isolate (source animal id): 129 | ≤ 1
isolate (source animal id): 130 | ≤ 1
isolate (source animal id): 131 | ≤ 1
isolate (source animal id): 132 | ≤ 1
isolate (source animal id): 133 | ≤ 1
isolate (source animal id): 134 | ≤ 1
isolate (source animal id): 135 | ≤ 1
isolate (source animal id): 136 | ≤ 1
isolate (source animal id): 137 | ≤ 1
isolate (source animal id): 138 | ≤ 1
isolate (source animal id): 139 | ≤ 1
isolate (source animal id): 140 | ≤ 1
isolate (source animal id): 141 | ≤ 1
isolate (source animal id): 142 | ≤ 1
isolate (source animal id): 143 | ≤ 1
isolate (source animal id): 144 | ≤ 1
isolate (source animal id): 145 | ≤ 1
isolate (source animal id): 146 | ≤ 1
isolate (source animal id): 147 | ≤ 1
isolate (source animal id): 148 | ≤ 1
isolate (source animal id): 149 | ≤ 1
isolate (source animal id): 150 | ≤ 1
isolate (source animal id): 151 | ≤ 1
isolate (source animal id): 152 | ≤ 1
isolate (source animal id): 153 | ≤ 1
isolate (source animal id): 154 | ≤ 1
isolate (source animal id): 155 | ≤ 1
isolate (source animal id): 156 | ≤ 1
isolate (source animal id): 157 | ≤ 1
isolate (source animal id): 158 | ≤ 1
isolate (source animal id): 159 | ≤ 1
isolate (source animal id): 160 | ≤ 1
isolate (source animal id): 161 | ≤ 1
isolate (source animal id): 162 | ≤ 1
isolate (source animal id): 163 | ≤ 1
isolate (source animal id): 164 | ≤ 1
isolate (source animal id): 165 | ≤ 1
isolate (source animal id): 166 | ≤ 1
isolate (source animal id): 167 | ≤ 1
isolate (source animal id): 168 | ≤ 1
isolate (source animal id): 169 | ≤ 1
isolate (source animal id): 170 | ≤ 1
isolate (source animal id): 171 | ≤ 1
isolate (source animal id): 172 | ≤ 1
isolate (source animal id): 173 | ≤ 1
isolate (source animal id): 174 | ≤ 1
isolate (source animal id): 175 | ≤ 1
isolate (source animal id): 176 | ≤ 1
isolate (source animal id): 177 | ≤ 1
isolate (source animal id): 178 | ≤ 1
isolate (source animal id): 179 | ≤ 1
isolate (source animal id): 180 | 4 (≈ 8.38 µM)
isolate (source animal id): 181 | ≤ 1
isolate (source animal id): 182 | ≤ 1
isolate (source animal id): 183 | ≤ 1
isolate (source animal id): 184 | ≤ 1
isolate (source animal id): 185 | ≤ 1
isolate (source animal id): 186 | ≤ 1
isolate (source animal id): 187 | 8 (≈ 16.8 µM)
isolate (source animal id): 188 | ≤ 1

C=C[C@]1(C)C[C@@H](OC(=O)CSCCN(CC)CC)[C@]2(C)[C@H](C)CC[C@]3(CCC(=O)[C@H]32)[C@@H](C)[C@@H]1O [Tiamulin]
Conditions | minimum inhibitory concentration [µg/mL]
isolate (source animal id): 8 | 32 (≈ 64.8 µM)
isolate (source animal id): 9 | > 32
isolate (source animal id): 10 | > 32
isolate (source animal id): 11 | > 32
isolate (source animal id): 12 | > 32
isolate (source animal id): 13 | > 32
isolate (source animal id): 14 | > 32
isolate (source animal id): 15 | > 32
isolate (source animal id): 16 | > 32
isolate (source animal id): 98 | > 32
isolate (source animal id): 99 | > 32
isolate (source animal id): 100 | 32 (≈ 64.8 µM)
isolate (source animal id): 101 | > 32
isolate (source animal id): 102 | > 32
isolate (source animal id): 103 | > 32
isolate (source animal id): 104 | > 32
isolate (source animal id): 105 | > 32
isolate (source animal id): 106 | > 32
isolate (source animal id): 107 | > 32
isolate (source animal id): 108 | > 32
isolate (source animal id): 109 | > 32
isolate (source animal id): 110 | > 32
isolate (source animal id): 111 | > 32
isolate (source animal id): 112 | 32 (≈ 64.8 µM)
isolate (source animal id): 113 | > 32
isolate (source animal id): 114 | > 32
isolate (source animal id): 115 | > 32
isolate (source animal id): 116 | 32 (≈ 64.8 µM)
isolate (source animal id): 117 | > 32
isolate (source animal id): 118 | > 32
isolate (source animal id): 119 | > 32
isolate (source animal id): 120 | > 32
isolate (source animal id): 121 | > 32
isolate (source animal id): 122 | > 32
isolate (source animal id): 123 | > 32
isolate (source animal id): 124 | 32 (≈ 64.8 µM)
isolate (source animal id): 125 | 16 (≈ 32.4 µM)
isolate (source animal id): 126 | > 32
isolate (source animal id): 127 | > 32
isolate (source animal id): 128 | 32 (≈ 64.8 µM)
isolate (source animal id): 129 | 32 (≈ 64.8 µM)
isolate (source animal id): 130 | > 32
isolate (source animal id): 131 | > 32
isolate (source animal id): 132 | > 32
isolate (source animal id): 133 | > 32
isolate (source animal id): 134 | > 32
isolate (source animal id): 135 | > 32
isolate (source animal id): 136 | > 32
isolate (source animal id): 137 | > 32
isolate (source animal id): 138 | 32 (≈ 64.8 µM)
isolate (source animal id): 139 | > 32
isolate (source animal id): 140 | > 32
isolate (source animal id): 141 | > 32
isolate (source animal id): 142 | > 32
isolate (source animal id): 143 | > 32
isolate (source animal id): 144 | > 32
isolate (source animal id): 145 | > 32
isolate (source animal id): 146 | > 32
isolate (source animal id): 147 | 32 (≈ 64.8 µM)
isolate (source animal id): 148 | > 32
isolate (source animal id): 149 | > 32
isolate (source animal id): 150 | > 32
isolate (source animal id): 151 | > 32
isolate (source animal id): 152 | 32 (≈ 64.8 µM)
isolate (source animal id): 153 | > 32
isolate (source animal id): 154 | > 32
isolate (source animal id): 155 | 32 (≈ 64.8 µM)
isolate (source animal id): 156 | > 32
isolate (source animal id): 157 | > 32
isolate (source animal id): 158 | > 32
isolate (source animal id): 159 | > 32
isolate (source animal id): 160 | > 32
isolate (source animal id): 161 | > 32
isolate (source animal id): 162 | > 32
isolate (source animal id): 163 | > 32
isolate (source animal id): 164 | > 32
isolate (source animal id): 165 | > 32
isolate (source animal id): 166 | > 32
isolate (source animal id): 167 | > 32
isolate (source animal id): 168 | 32 (≈ 64.8 µM)
isolate (source animal id): 169 | > 32
isolate (source animal id): 170 | 32 (≈ 64.8 µM)
isolate (source animal id): 171 | > 32
isolate (source animal id): 172 | > 32
isolate (source animal id): 173 | > 32
isolate (source animal id): 174 | > 32
isolate (source animal id): 175 | > 32
isolate (source animal id): 176 | > 32
isolate (source animal id): 177 | > 32
isolate (source animal id): 178 | > 32
isolate (source animal id): 179 | > 32
isolate (source animal id): 180 | > 32
isolate (source animal id): 181 | > 32
isolate (source animal id): 182 | > 32
isolate (source animal id): 183 | > 32
isolate (source animal id): 184 | > 32
isolate (source animal id): 185 | > 32
isolate (source animal id): 186 | > 32
isolate (source animal id): 187 | 32 (≈ 64.8 µM)
isolate (source animal id): 188 | > 32
